For data set [1], the target named is T1, Neutrophil elastase (Homo sapiens, UniProt P08246).
T1 sequence (P08246 whole entry): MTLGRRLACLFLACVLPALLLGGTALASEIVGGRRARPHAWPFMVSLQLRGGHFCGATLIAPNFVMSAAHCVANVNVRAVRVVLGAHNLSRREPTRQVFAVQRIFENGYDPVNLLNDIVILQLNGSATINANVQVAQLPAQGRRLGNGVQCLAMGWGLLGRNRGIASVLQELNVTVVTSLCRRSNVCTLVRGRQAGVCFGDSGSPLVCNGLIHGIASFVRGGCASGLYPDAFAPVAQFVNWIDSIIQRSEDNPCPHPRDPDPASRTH
The data set is described as follows: In vitro inhibitory activity against human neutrophil elastase (HNE).

The target of data set [2] is T2, Neutrophil elastase (Homo sapiens) (UniProt P08246).
T2 sequence (whole entry): T1 sequence (P08246 whole entry)
The settings on record: Cricetulus griseus; Liver; Microsome; 20 mg/kg.
Description: Compound was evaluated for the inhibition of elastase in hamster liver microsomes at a concentration of 20 mg/kg

Data set [3] deals with T2, Neutrophil elastase (Homo sapiens). The settings on record: Cricetulus griseus; Liver; Microsome; 10 mg/kg.
Description: Compound was evaluated for the inhibition of elastase in hamster liver microsomes at a concentration of 10 mg/kg
Data set [4] concerns Hamster. Kind of data set: Plasma clearance after iv administration at 3 mg/kg in hamster. The class given is ADME, organism-based. The arrangement: dose 3 mg/kg, route intravenous. The settings on record: cricetinae, in vivo.
Data set [5] can be described thus: Volume distribution after iv administration at 3 mg/kg in hamster. The arrangement: dose 3 mg/kg, route intravenous. The class given is ADME, organism-based. The following applies: cricetinae, in vivo.
Data set [6] in a line: Bioavailability after po administration of 10 mg/kg in hamster. The class given is ADME, organism-based, Cricetulus griseus. The following applies: chinese hamster, in vivo.
Data set [7] is described as follows: Half life after po administration of 10 mg/kg in hamster. The class given is ADME, organism-based. The arrangement: dose 10 mg/kg, route oral. The following applies: cricetinae, in vivo.
Data set [8] is described as follows: Half life after iv administration at 3 mg/kg in hamster. The arrangement: dose 3 mg/kg, route intravenous. In kind it is ADME, organism-based. The settings on record: cricetinae, in vivo.
Data set [9] can be described thus: Solubility in water was evaluated. In kind it is physicochemical.
In data set [10] the target is T2, Neutrophil elastase (Homo sapiens). Kind of data set: In vitro percent inhibition of human whole blood (HWB) elastase at a concentration of 10 uM except in plasma. In kind it is tissue-based.
The target is the same in data set [11]. Kind of data set: In vitro inhibition of human whole blood (HWB) elastase at a concentration of 10 uM except in buffer.
Data set [12] has the same target. The data set is described as follows: Compound was evaluated in vivo for the inhibition of elastase in hamster bronchoalveolar lavage (BAL) 6 hour after an intratracheal dose of IL-8 at a concentration 20 mg/kg. The class given is organism-based. More on the design: dose 20 mg/kg. The settings on record: Cricetulus griseus; Lung.
Data set [13] in a line: Bioavailability after po administration at 4 mg/kg in hamster. The class given is ADME, organism-based, Cricetulus griseus. The following applies: chinese hamster, in vivo.
The nature of data set [14]: Half life after iv administration at 4 mg/kg in hamster. The class given is ADME, organism-based. The arrangement: dose 4 mg/kg, route intravenous. The settings on record: cricetinae, in vivo.
The test system of data set [15] is Hamster. The data set is described as follows: Plasma clearance after iv administration at 4 mg/kg in hamster. More on the design: dose 4 mg/kg, route intravenous. The following applies: cricetinae, in vivo. In kind it is ADME, organism-based.
Data set [16] deals with T2, Neutrophil elastase (Homo sapiens). The data set is described as follows: Compound was evaluated in vivo for the inhibition of elastase in hamster bronchoalveolar lavage (BAL) 6 hour after an intratracheal dose of IL-8 at a concentration 40 mg/kg. The arrangement: dose 40 mg/kg. In kind it is organism-based. The following applies: Cricetulus griseus; Lung.
Data set [17] shares this target. Kind of data set: Compound was evaluated in vivo for the inhibition of elastase in hamster bronchoalveolar lavage (BAL) 6 hour after an intratracheal dose of IL-8 at a concentration 10 mg/kg. The class given is organism-based. The arrangement: dose 10 mg/kg. The following applies: Cricetulus griseus; Lung.
The nature of data set [18]: Volume distribution after iv administration at 4 mg/kg in hamster. In kind it is ADME, organism-based. The arrangement: dose 4 mg/kg, route intravenous. The settings on record: cricetinae, in vivo.
The target in data set [19] is T2, Neutrophil elastase (Homo sapiens). The data set is described as follows: In vitro inhibition of human whole blood (HWB) elastase at a concentration of 10 uM.
The target in data set [20] is T1, Neutrophil elastase. The data set is described as follows: In vitro inhibitory activity in human whole blood (HWB) elastase. The class given is tissue-based.
The target in data set [21] is T1, Neutrophil elastase. The data set is described as follows: In vitro inhibitory activity in human whole blood (HWB) elastase at a concentration of 10. In kind it is tissue-based.

Residues, ends and D or L forms follow the SMILES beside them. *: point of attachment. CF3 = FC(F)(F)*; Moc = COC(=O)*

Data on ten molecules can be found in ChEMBL document CHEMBL1133791, “Intracellular inhibition of human neutrophil elastase by orally active pyrrolidine-trans-lactams” (Bioorg Med Chem Lett, 2001).

Regarding `C=CC[C@H]1C(=O)N(C(=O)OCC)[C@H]2CCN(C(=O)OCc3ccccc3)[C@H]12`, at Neutrophil elastase [1], the IC50 was 2 nM.
`C=CC[C@H]1C(=O)N(CCCCCC)[C@H]2CCN(C(=O)OCc3ccccc3)[C@H]12`: the IC50 against Neutrophil elastase [1] was 29 nM.
As to `C=CC[C@H]1C(=O)N[C@H]2CCN(C(=O)OCc3ccccc3)[C@@H]21`, the IC50 on Neutrophil elastase [1] was greater than 500 nM.
For `CCC[C@H]1C(=O)N(S(C)(=O)=O)[C@H]2CCN(C(=O)CCN3CCCCC3)[C@H]12.Cl`, the values for the inhibition in [2] and in [3] were 76% and 41%, respectively. Also, the IC50 on Neutrophil elastase [1] was 140 nM. Further, in the data set with Hamster [4], the Clp was found to be 140 mL/min/kg. Moreover, the distribution volume (Vd) in [5] was 2.3 L/kg. The molecule also gave a bioavailability in [6] of 49%. In addition, the half-life in data set [7] was 30 min; in [8], 12 min. Moreover, the solubility in data set [9] was greater than 1000 µg/mL.
Consider `C=CC[C@H]1C(=O)N(S(=O)(=O)c2ccc3ccccc3c2)[C@H]2CCN(C(=O)OCc3ccccc3)[C@H]12`, for which the inhibition was 23% in data set [10] and 92% in [11].
Turning to `CCC[C@H]1C(=O)N(S(=O)(=O)c2ccc3ccccc3c2)[C@H]2CCN(C(=O)CCN3CCCCC3)[C@H]12.Cl`, the IC50 against Neutrophil elastase [1] is 137 nM. Moreover, the inhibition in data set [12] worked out at 30%; in data set [16], 60%; in data set [17] it was 10%. Besides, the bioavailability in data set [13] turned out to be 1%. The half-life in [14] is 30 min. The Clp in the data set on Hamster [15] is 200 mL/min/kg. Further, in [18], the Vd was 8.1 L/kg. The solubility in data set [9] was greater than 1000 µg/mL.
Molecule `C=CC[C@H]1C(=O)N(C(=O)NCC)[C@H]2CCN(C(=O)OCc3ccccc3)[C@H]12` displayed an IC50 at Neutrophil elastase [1] of 31 nM.
Turning to `C=CC[C@H]1C(=O)N(S(C)(=O)=O)[C@H]2CCN(C(=O)OCc3ccccc3)[C@H]12`, in data set [19], the inhibition was 98%.
With `COC(=O)N[C@H](C(=O)N1CCC[C@H]1C(=O)N[C@H](C(=O)C(F)(F)F)C(C)C)C(C)C` (Moc-Val-Pro-Val-CF3), on Neutrophil elastase [20], the IC50 was greater than 10 nM.
`CCC[C@@H](NC(=O)N1C(=O)C(CC)(CC)[C@@H]1Oc1ccc(C(=O)N2CCN(C)CC2)cc1)c1ccc2c(c1)OCO2`: the IC50 on Neutrophil elastase [21] was found to be 0.45 nM.
